According to patent publication US10206944B2, “Chondroitin for use in medicine” (ALTERGON S.A., priority 2012, dated 2019):

Experiments:
Format in all cases: cell-based
type II collagen = assay: Phenotype analysis with immunohistochemical tests on human chondrocytes
Method: The evaluation of the chondrocyte phenotype of fresh cells extracted from human cartilage tissue samples and after 4, 7 and 10 days' growth in medium containing chondroitin or chondroitin sulphate was conducted with immunohistochemical tests, using the Envision+(DaKo) kit which uses an antibody for type II collagen, considered to be a specific marker for chondrocyte differentiation (Stokes et al., Biochem. J., 2001, 360:461-470).

[1] = test system: Escherichia coli strain ATCC 25922; assay: Inhibition of bacterial growth on plate, E. coli
Method: (§1) The antibacterial activity of chondroitin (C) and chondroitin sulphate (CS) on the growth of Escherichia coli ATCC 25922 and Enterococcus faecalis ATCC 19433 on a solid medium in vitro was examined. The concentrations explored ranged from 40 μg/mL to 40 mg/mL of C or CS as final concentrations in the medium. Brain-heart infusion (Oxoid) was used as culture medium for E. coli ATCC 25922, and M17 (Oxoid) for E. faecalis ATCC 19433; both media were adjusted to the same pH and the same osmolarity before being solidified by adding agar and cooled. 100 μL of a bacterial suspension containing 10^2, 10^3 or 10^4 bacteria/mL was plated as inoculum. The plates inoculated were incubated in shakers in air at 37° C. for 16 h. The number of colonies was then counted on control plates in the absence of the substances under study and on plates at the various concentrations of C and CS. The data from the experiments for the two micro-organisms, conducted in triplicate for each of the conditions, are shown in tables 7 and 8.

[2] = test system: Enterococcus faecalis strain ATCC 19433; assay: Inhibition of bacterial growth on plate, E. faecalis
Method: as §1, with “The plates inoculated were incubated in shakers in air at 37° C. for 16 h.” left out

[3] = test system: primary cultures of human chondrocytes; assay: Chondrocyte proliferation test (time-lapse videomicroscopy); details: 1% w/v
From the text: Primary cultures of human chondrocytes isolated from healthy human cartilage samples obtained during rhinoplasty operations were used as model system. The tissue fragments just removed in the operating theatre were immersed in an 0.9% w/w NaCl saline solution and rapidly transferred to the laboratory for extraction of chondrocytes. Operating in sterile conditions under laminar-flow hood, the tissue sample was transferred to a petri dish where it was cut into small pieces using sterile tweezers and scalpels. The pieces of cartilage were then immersed in 0.01M phosphate buffer pH 7.4 (PBS) containing type 1 collagenase (3 mg/mL), dispase (4 mg/mL) and gentamicin (5 μL/mL of an 80 mg/mL solution) to ensure sterility during enzymatic digestion. The pieces were left to incubate overnight in a Falcon tube at 37° C., under stirring. After 16-18 h the solution was filtered through a 70 μm filter, transferring the parts adhering to the Falcon tube onto the filter and washing with 7-8 mL of DMEM 10% FBS. The filtrate was centrifuged at 1,500 rpm for 7 min, the supernatant was removed and the pellet was suspended in 10 mL of DMEM 10% FBS containing fungizone (5 μL/mL of an 80 mg/mL solution) and gentamicin (5 μL/mL of an 80 mg/mL solution). The cell suspension thus obtained was plated in a 25 cm^2 flask and incubated at 37° C. in a 5% CO2 atmosphere, with changes of medium every 2 or 3 days until complete confluency of the cell culture. The cells, which have the characteristic appearance of chondrocytes (small swollen cells with a slightly elongated shape), were detached from the base of the flask, counted and incubated again in fresh medium. Starting with 0.4 g of cartilage, about 2*10^6 cells were generally obtained in the second growth phase. Knowledge of the number of growth cycles to which the culture has previously been subjected is of crucial importance for primary cells; especially in the case of chondrocytes a cell differentiation process is observed wherein, as the growth phases proceed, the cells increasingly present an appearance morphologically similar to fibroblasts. For this reason the entire study is conducted with primary chondrocyte cultures at the 2nd-4th growth phase.
The effect of chondroitin on chondrocyte proliferation was evaluated with time-lapse videomicroscopy, as described in Example 1. The study was performed comparatively with chondrocytes stimulated with chondroitin sulphate, using non-stimulated chondrocytes as control system. 20*10^3 cells were seeded per well of a 24-well multiwell plate. The cells were treated with chondroitin or chondroitin sulphate with an endotoxin content ≤0.1 EU/mg at a concentration of 1% w/v in DMEM 10% FBS; in the controls, the cells were seeded in DMEM 10% FBS. The experiments were conducted in triplicate and analysed for a total time ranging between 96 and 120 h. Image analysis, conducted with Image Pro-plus 5.1 analysis software, allowed a precise number of cells to be obtained with a manual count at times pre-set by the operator, in order to construct a growth curve over time. The data analysis indicates (Table 2) that the growth of the cells treated with chondroitin was better than that of the untreated cells and the cells treated with chondroitin sulphate.

[4] = 40 μg/mL, 10 bacteria inoculated
[5] = 40 μg/mL, 100 bacteria inoculated
[6] = 40 μg/mL, 1000 bacteria inoculated
[7] = 400 μg/mL, 10 bacteria inoculated
[8] = 400 μg/mL, 100 bacteria inoculated
[9] = 400 μg/mL, 1000 bacteria inoculated
[10] = 4 mg/mL, 10 bacteria inoculated
[11] = 4 mg/mL, 100 bacteria inoculated
[12] = 4 mg/mL, 1000 bacteria inoculated
[13] = 40 mg/mL, 10 bacteria inoculated
[14] = 40 mg/mL, 100 bacteria inoculated
[15] = 40 mg/mL, 1000 bacteria inoculated
[16] = 40 mg/mL (maximum concentration)

For “chondroitin sulphate [CS, reference compound]”, the “positivity to type II collagen” value (type II collagen; after 4 days' treatment) was “strong positivity to type II collagen”, the Inhibition factor ([1]; 40 μg/mL) was 1 and the “CFU after 16 h” value [1, 4] was 7 ± 2 CFU. The “CFU after 16 h” value [1, 5] was 85 ± 7 CFU, the “CFU after 16 h” value [1, 6] was 860 ± 70 CFU and the Inhibition factor ([1]; 400 μg/mL) was 2. The “Qualitative valuation of inhibition” value ([1]; 400 μg/mL) was “mild”, the “CFU after 16 h” value [1, 7] was 5 ± 1 CFU and the “CFU after 16 h” value [1, 8] was 50 ± 5 CFU. The “CFU after 16 h” value [1, 9] was 400 ± 70 CFU, the Inhibition factor ([1]; 4 mg/mL) was 10 and the “Qualitative valuation of inhibition” value ([1]; 4 mg/mL) was “significant”. For the same substance, the “CFU after 16 h” value [1, 10] was 0 CFU, the “CFU after 16 h” value [1, 11] was 9 ± 2 CFU and the “CFU after 16 h” value [1, 12] was 100 ± 10 CFU. For the same substance, the Inhibition factor ([1]; 40 mg/mL) was 330, the “Qualitative valuation of inhibition” value ([1]; 40 mg/mL) was “high” and the “CFU after 16 h” value [1, 13] was 0 CFU. The “CFU after 16 h” value [1, 14] was 0 CFU, the “CFU after 16 h” value [1, 15] was 3 ± 1 CFU and the “CFU after 36 h” value [2, 4] was 8 ± 2 CFU. The “CFU after 36 h” value [2, 5] was 90 ± 7 CFU, the “CFU after 36 h” value [2, 6] was 960 ± 70 CFU and the Inhibition factor ([2]; 400 μg/mL) was 1.3. For the same substance, the “Qualitative valuation of inhibition” value ([2]; 400 μg/mL) was “mild”, the “CFU after 36 h” value [2, 7] was 7 ± 1 CFU and the “CFU after 36 h” value [2, 8] was 80 ± 5 CFU. For the same substance, the “CFU after 36 h” value [2, 9] was 780 ± 70 CFU, the Inhibition factor ([2]; 4 mg/mL) was 2 and the “Qualitative valuation of inhibition” value ([2]; 4 mg/mL) was “significant”. The “CFU after 36 h” value [2, 10] was 5 ± 1 CFU, the “CFU after 36 h” value [2, 11] was 48 ± 4 CFU and the “CFU after 36 h” value [2, 12] was 520 ± 30 CFU. The “Qualitative valuation of inhibition” value ([2]; 40 mg/mL) was “high”, the Inhibition factor [2, 16] was 7.4 and the “CFU after 36 h” value [2, 13] was 0 CFU. For the same substance, the “CFU after 36 h” value [2, 14] was 15 ± 2 CFU, the “CFU after 36 h” value [2, 15] was 120 ± 10 CFU and the Number of chondrocytes ([3]; time 0 h) was 7.0 ± 0.5 Cells × 10^4. The Number of chondrocytes ([3]; time 20 h) was 10.0 ± 1.2 Cells × 10^4, the Number of chondrocytes ([3]; time 40 h) was 14.0 ± 1.8 Cells × 10^4 and the Number of chondrocytes ([3]; time 60 h) was 18.0 ± 1.6 Cells × 10^4. It also gave a Number of chondrocytes ([3]; time 80 h) of 21.8 ± 1.7 Cells × 10^4 and a Number of chondrocytes ([3]; time 100 h) of 25.0 ± 2.5 Cells × 10^4.

chondroitin was tested, and the “positivity to type II collagen” value (type II collagen; after 4 days' treatment) was “strong positivity to type II collagen”, the “positivity to type II collagen” value (type II collagen; longer times (7 and 10 days)) was “only maintained for longer times (7 and 10 days) in the cells treated with chondroitin” and the Inhibition factor ([1]; 40 μg/mL) was 1.3. For the same substance, the “Qualitative valuation of inhibition” value ([1]; 40 μg/mL) was “mild”, the “CFU after 16 h” value [1, 4] was 7 ± 2 CFU and the “CFU after 16 h” value [1, 5] was 80 ± 5 CFU. The “CFU after 16 h” value [1, 6] was 800 ± 70 CFU, the Inhibition factor ([1]; 400 μg/mL) was 9 and the “Qualitative valuation of inhibition” value ([1]; 400 μg/mL) was “significant”. The “CFU after 16 h” value [1, 7] was 2 ± 1 CFU, the “CFU after 16 h” value [1, 8] was 10 ± 2 CFU and the “CFU after 16 h” value [1, 9] was 120 ± 30 CFU. For the same substance, the Inhibition factor ([1]; 4 mg/mL) was 66, the “Qualitative valuation of inhibition” value ([1]; 4 mg/mL) was “high” and the “CFU after 16 h” value [1, 10] was 0 CFU. The “CFU after 16 h” value [1, 11] was 1 ± 1 CFU, the “CFU after 16 h” value [1, 12] was 20 ± 4 CFU and the Inhibition factor ([1]; 40 mg/mL) was 1000. The “Qualitative valuation of inhibition” value ([1]; 40 mg/mL) was “total inhibition of growth”, the “CFU after 16 h” value [1, 13] was 0 CFU and the “CFU after 16 h” value [1, 14] was 0 CFU. For the same substance, the “CFU after 16 h” value [1, 15] was 0 CFU, the Inhibition factor ([2]; 40 μg/mL) was 1.2 and the “Qualitative valuation of inhibition” value ([2]; 40 μg/mL) was “mild”. For the same substance, the “CFU after 36 h” value [2, 4] was 8 ± 2 CFU, the “CFU after 36 h” value [2, 5] was 82 ± 5 CFU and the “CFU after 36 h” value [2, 6] was 870 ± 70 CFU. The Inhibition factor ([2]; 400 μg/mL) was 2, the “Qualitative valuation of inhibition” value ([2]; 400 μg/mL) was “significant” and the “CFU after 36 h” value [2, 7] was 5 ± 1 CFU. For the same substance, the “CFU after 36 h” value [2, 8] was 55 ± 6 CFU, the “CFU after 36 h” value [2, 9] was 480 ± 30 CFU and the Inhibition factor ([2]; 4 mg/mL) was 6.1. The “Qualitative valuation of inhibition” value ([2]; 4 mg/mL) was “significant”, the “CFU after 36 h” value [2, 10] was 0 CFU and the “CFU after 36 h” value [2, 11] was 18 ± 4 CFU. The “CFU after 36 h” value [2, 12] was 150 ± 4 CFU, the “Qualitative valuation of inhibition” value ([2]; 40 mg/mL) was “high” and the Inhibition factor [2, 16] was 50. The “CFU after 36 h” value [2, 13] was 0 CFU, the “CFU after 36 h” value [2, 14] was 0 CFU and the “CFU after 36 h” value [2, 15] was 20 ± 2 CFU. It also gave a Number of chondrocytes ([3]; time 0 h) of 7.0 ± 0.7 Cells × 10^4, a Number of chondrocytes ([3]; time 20 h) of 10.2 ± 0.9 Cells × 10^4 and a Number of chondrocytes ([3]; time 40 h) of 15.3 ± 1.3 Cells × 10^4. It also gave a Number of chondrocytes ([3]; time 60 h) of 22.0 ± 1.8 Cells × 10^4, a Number of chondrocytes ([3]; time 80 h) of 27.0 ± 2.0 Cells × 10^4 and a Number of chondrocytes ([3]; time 100 h) of 32.0 ± 2.1 Cells × 10^4.
